From patent US20230240973A1, “CANNABIS SATIVA EXTRACTS AND THEIR USES” (LINNEA SA, priority 2020, published 2023)

How the values were obtained:
HaCaT cells = assay: MTT cytotoxicity assay on HaCaT cells; assay type: cell-based, human; details: 6 or 24 hours (FIG. 4)
Procedure: (§1) The cytotoxicity tests were performed using the MTT assay, capable of measuring the mitochondrial succinic dehydrogenase enzyme, whose activity indicates cell viability, on human keratinocytes or fibroblasts incubated with the Cannabis sativa extract according to example 2 and with pure CBD. The integrity of the morphology before and after 6 and 24 hour incubation was assessed by light microscopy.
(§2) HaCaT cells, spontaneously immortalized human keratinocyte line (Boukamp et al., 1988) and normal human dermal fibroblasts (HDF) were cultured in DMEM (Gibco, Life Technologies, Monza, Italy) supplemented with 10% heat inactivated fetal bovine serum (Euroclone SpA, Milan, Italy), L-glutamine (2 mM; Gibco, Life Technologies, Monza, Italy), penicillin (100 U/ml), and streptomycin ([…]; Gibco, Life Technologies, Monza, Italy), at 37° C. in a humidified atmosphere containing 5% CO2. Every 4 days, at 80-90% confluence, the cells were detached using 0.25% trypsin-EDTA (Gibco, Life Technologies, Monza, Italy), counted and placed in a new flask at a density of 1.5×10^6 cells per flask, to allow for growth. For the purpose of the present analyses, the cells were seeded in 24-well plates and incubated with the extract according to the present invention or pure CBD at increasing concentrations. […]

HDF cells = assay: MTT cytotoxicity assay on HDF cells; assay type: cell-based, human; details: 6 or 24 hours (FIG. 3)
Procedure: as §1, §2

NF-kB = NF-kB driven transcription in TNF-α stimulated HaCaT cells; assay type: cell-based; details: human keratinocytes (HaCaT), read-out: IC50 of inhibition of NF-kB-driven transcription
Procedure: (§3) To evaluate the anti-inflammatory activity of the extract according to the present invention, the in vitro effect after exposure to pro-inflammatory stimuli on the expression levels of factors known to be involved in inflammatory processes was evaluated.
The nuclear transcription factor NF-kB is activated by pro-inflammatory stimuli and activates the transcription of genes that amplify the inflammatory process, such as MMP-9, cytokines and growth factors such as VEGF.

IL-8 [1] = assay: IL-8 secretion in TNF-α stimulated HaCaT cells; assay type: cell-based; details: human keratinocytes (HaCaT), TNF-α 10 ng/ml
Procedure: as §3
(§4) In particular, the following were chosen as inflammation markers: • IL-8, a cytokine secreted by keratinocytes and fibroblasts following inflammation and particularly involved in skin diseases such as psoriasis; • MMP-9, a metalloprotease which degrades the extracellular matrix and which is activated following chronic skin inflammations such as dermatitis and psoriasis; • VEGF, the release of which by keratinocytes leads to the formation of the classic psoriatic plaques in patients suffering from this pathology.

VEGF = VEGF secretion in TNF-α stimulated HaCaT cells; assay type: cell-based; details: human keratinocytes (HaCaT), TNF-α 10 ng/ml
Procedure: as §3, §4

MMP-9 [2] = assay: MMP-9 secretion in TNF-α stimulated HaCaT cells; assay type: cell-based; details: human keratinocytes (HaCaT), TNF-α 10 ng/ml
Procedure: as §3, §4

IL-8 [3] = assay: IL-8 release in TNF-α stimulated HDF cells; assay type: cell-based; details: human fibroblasts (HDF)
From the text: (§5) FIG. 7: effect evaluated on TNF-α stimulated HDF cells (A) on transcription induced by NF-kB and on release of (B) IL8, (C) MMP-9 following exposure to the indicated doses of the composition according to the present invention and, for comparative purposes, (D) on NF-kB-induced transcription and (E) IL8, (F) MMP-9 release following exposure to pure CBD.
as §3, §4
(§6) FIG. 7 reports the results obtained in human fibroblasts.

MMP-9 [4] = assay: MMP-9 release in TNF-α stimulated HDF cells; assay type: cell-based; details: human fibroblasts (HDF)
From the text: as §5, §3, §4, §6

What does the source list for `C=C(C)[C@@H]1CCC(C)=C[C@H]1c1c(O)cc(CCCCC)cc1O` [CBD, cannabidiol]?
concentrations showing cytotoxic effects (HaCaT cells): above 5 μM; concentrations showing cytotoxic effects (HDF cells): above 2.5 μM; IC50 (NF-kB): 2850 nM; effect on expression levels of IL-8 (IL-8 [1]): no effect; effect on expression levels of VEGF (VEGF): modest; effect on expression levels of MMP-9 (MMP-9 [2]): modest; effect on release of IL-8 (IL-8 [3]): no effect; effect on release of MMP-9 (MMP-9 [4]): no effect
